The target of this assay is Estrogen receptor (Ovis aries) (UniProt P49885+Q9TU15).
Regarding `C[C@]12CC[C@@H]3c4ccc(O)c(Br)c4CC[C@H]3[C@@H]1CC[C@@H]2O`, the RAC is 10.

Molecule `CCC(c1ccc(O)cc1)C(CC)c1cc(I)c(O)c(I)c1` (stereo not drawn) displayed an RAC of 1.9.

`CCC(c1cc(Br)c(O)c(Br)c1)C(CC)c1cc(Br)c(O)c(Br)c1` (stereo not drawn) displayed an RAC of less than 0.17.

Consider `CCC(c1ccc(O)c(F)c1)C(CC)c1ccc(O)c(F)c1` (stereo not drawn), for which the RAC stood at 64.

With `COc1ccc2c(c1)CC[C@@H]1[C@@H]2CC[C@]2(C)C(=O)CC[C@@H]12`, the RAC amounted to 12.

The molecule `C[C@]12CC[C@@H]3c4ccc(O)cc4CC[C@H]3[C@@H]1C[C@H](I)[C@@H]2O` came in with an RAC of 57.

Molecule `C[C@]12CC[C@@H]3c4ccc(O)cc4CC[C@H]3[C@@H]1C[C@@H](Cl)[C@@H]2O` had an RAC of 100.

In turn, `C[C@]12CC[C@@H]3c4cc(F)c(O)cc4CC[C@H]3[C@@H]1CC[C@@H]2O` displayed an RAC of 86.

In the case of `COc1ccc2c(c1)CC[C@@H]1[C@@H]2CC[C@]2(C)C(=O)[C@@H](Br)C[C@@H]12`, the RAC is 0.14.

The molecule `CCC(c1cc(I)c(O)c(I)c1)C(CC)c1cc(I)c(O)c(I)c1` (stereo not drawn) gave an RAC of 0.002.

The molecule `CC[C@H](c1ccc(O)cc1)[C@@H](CC)c1ccc(O)cc1` came in with an RAC of 300.

The molecule `C[C@]12CC[C@@H]3c4cc(Br)c(O)cc4CC[C@H]3[C@@H]1CC[C@@H]2O` showed an RAC of 1.2.

In turn, `C[C@]12CC[C@@H]3c4ccc(O)cc4CC[C@H]3[C@@H]1C[C@@H](I)[C@@H]2O` registered an RAC of 100.

`C[C@]12CC[C@@H]3c4ccc(O)cc4CC[C@H]3[C@@H]1C[C@@H](Cl)[C@H]2O` had an RAC of 9.2.

In the case of `CCC(c1ccc(O)cc1)C(CC)c1ccc(O)c(F)c1` (stereo not drawn), the RAC was determined as 205.

Turning to `C[C@]12CC[C@@H]3c4ccc(O)cc4CC[C@H]3[C@@H]1C[C@@H](Br)[C@@H]2O`, the RAC is 127.

Regarding `CCC(c1ccc(O)c(Br)c1)C(CC)c1ccc(O)c(Br)c1` (stereo not drawn), the RAC stood at 2.6.

`CCC(c1ccc(O)c(Br)c1)C(CC)c1cc(Br)c(O)c(Br)c1` (stereo not drawn) showed an RAC of 0.72.

Regarding `C[C@]12CC[C@@H]3c4ccc(O)cc4CC[C@H]3[C@@H]1C[C@H](Br)[C@@H]2O`, the RAC was found to be 4.7.

Regarding `CCC(c1ccc(O)c(I)c1)C(CC)c1cc(I)c(O)c(I)c1` (stereo not drawn), the RAC was found to be 0.14.

`CCC(c1ccc(O)cc1)C(CC)c1ccc(O)c(Br)c1` (stereo not drawn) registered an RAC of 16.

As for `COc1ccc2c(c1)CC[C@@H]1[C@@H]2CC[C@]2(C)C(=O)[C@H](Br)C[C@@H]12`, the RAC worked out at 3.5.

In turn, `C[C@]12CC[C@@H]3c4ccc(O)cc4CC[C@H]3[C@@H]1C[C@@H](Br)[C@H]2O` displayed an RAC of 4.8.

Regarding `COc1ccc2c(c1)CC[C@@H]1[C@@H]2CC[C@]2(C)C(=O)[C@H](Cl)C[C@@H]12`, the RAC is 0.48.

Turning to `C[C@]12CC[C@@H]3c4ccc(O)c(F)c4CC[C@H]3[C@@H]1CC[C@@H]2O`, the RAC came to 128.

On to `CCC(c1ccc(O)cc1)C(CC)c1ccc(O)c(I)c1` (stereo not drawn), for which the RAC turned out to be 14.

Molecule `C[C@]12CC[C@@H]3c4cc(I)c(O)cc4CC[C@H]3[C@@H]1CC[C@@H]2O` yielded an RAC of less than 0.1.

Regarding `CCC(c1ccc(O)c(I)c1)C(CC)c1ccc(O)c(I)c1` (stereo not drawn), the RAC worked out at 3.2.

The record behind these values is ChEMBL document CHEMBL1121517, “Estrogen receptor based imaging agents. 1. Synthesis and receptor binding affinity of some aromatic and D-ring halogenated estrogens” (J Med Chem, 1980).
